Laboratory results reported in ChEMBL document CHEMBL1201862, “PubChem BioAssay data set” (2004).
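Test compounds were applied to cells in 96-well plates for 48 hours at 5 doses. The concentration for 50% growth inhibition is given as GI50.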 The source made the active and inactive calls. Cut-off read from the data, not from the text of the source: active = GI50 up to about 1.1 µM and inactive = higher.

Legend:
Test in all cases: NCI anticancer screen, dose series, 48 h
[1] = system: A498
[2] = system: HOP-62
[3] = system: Hs-578T
[4] = system: K562
[5] = system: MDA-MB-231
[6] = system: MDA-MB-435
[7] = system: MDA-N
[8] = system: NCI-H226
[9] = system: OVCAR-3
[10] = system: OVCAR-5
[11] = system: SK-MEL-5
[12] = system: SK-OV-3
[13] = system: SN12C
[14] = system: SNB-19
[15] = system: SW-620
[16] = system: HCC 2998
[17] = system: RXF 393
[18] = system: HL-60
[19] = system: SF-539

Measured: GI50

COc1ccc(/C=C2\NC(=S)N(CN3CCOCC3)C2=O)cc1
inactive: [1] 26.1 µM | [2] > 100 µM | [3] > 100 µM | [4] > 100 µM | [5] > 100 µM | [6] > 100 µM | [7] > 100 µM | [8] > 100 µM | [9] > 100 µM | [10] > 100 µM | [11] > 100 µM | [12] > 100 µM | [13] > 100 µM | [14] > 100 µM | [15] > 100 µM

COC(=O)C1C/C(=C/N(C)C)C(=S)N1 (stereo unspecified)
inactive: [1] > 100 µM | [16] > 100 µM | [2] > 100 µM | [3] > 100 µM | [4] > 100 µM | [5] > 100 µM | [6] > 100 µM | [7] > 100 µM | [9] > 100 µM | [10] > 100 µM | [17] > 100 µM | [11] > 100 µM | [12] > 100 µM | [14] > 100 µM | [15] > 100 µM

O=S(=O)(O)C(c1ccccc1)C(O)c1ccccc1 (stereo unspecified)
inactive: [1] > 100 µM | [18] > 100 µM | [2] > 100 µM | [3] > 100 µM | [4] > 100 µM | [5] > 100 µM | [6] > 100 µM | [7] > 100 µM | [8] > 100 µM | [9] > 100 µM | [10] > 100 µM | [17] > 100 µM | [11] > 100 µM | [12] > 100 µM | [13] > 100 µM | [14] > 100 µM | [15] > 100 µM

C/C=C(/C)C(=O)O[C@H]1C[C@@H]2[C@@H](O)c3occ(C)c3C[C@]2(C)[C@@H](C)C1
inactive: [16] 16.6 µM | [18] 9.93 µM | [2] 17.4 µM | [3] 28.8 µM | [4] 10.4 µM | [5] 15.5 µM | [6] 16.5 µM | [7] 18.7 µM | [8] 14.2 µM | [9] 17.1 µM | [10] 19.6 µM | [17] 14.4 µM | [19] 17.5 µM | [11] 10.4 µM | [12] 17.1 µM | [13] 14.1 µM | [14] 16.8 µM | [15] 16.2 µM

CC1=NN(c2nc(N)nc(-c3sccc3N)n2)C(C)(C)C1
inactive: [1] > 100 µM | [16] > 100 µM | [18] 71.3 µM | [2] > 100 µM | [3] 89.3 µM | [4] 44.1 µM | [5] 73.1 µM | [6] 45 µM | [7] 75.9 µM | [8] 33.1 µM | [9] > 100 µM | [10] > 100 µM | [19] > 100 µM | [11] 41.1 µM | [12] > 100 µM | [13] > 100 µM | [14] > 100 µM | [15] > 100 µM

O=C(NCCCCCCO)c1cccc2cc3ccccc3nc12
inactive: [1] > 10 µM | [18] 25.5 µM | [2] 17.9 µM | [3] 25.8 µM | [4] 32.4 µM | [5] 21 µM | [6] 21.7 µM | [7] 3.61 µM | [8] 16.6 µM | [9] 19.9 µM | [10] 18.6 µM | [17] 17.2 µM | [19] 16.7 µM | [11] 18.1 µM | [12] 22.4 µM | [13] 24 µM | [14] 15.8 µM | [15] 29.9 µM

CC(=O)C1C(=O)C(=O)N(c2ccc(Br)cc2)C1=O (stereo unspecified)
inactive: [16] > 100 µM | [18] > 100 µM | [2] > 100 µM | [3] > 100 µM | [5] > 100 µM | [6] > 100 µM | [7] > 100 µM | [8] > 100 µM | [9] > 100 µM | [10] > 100 µM | [17] > 100 µM | [19] > 100 µM | [11] > 100 µM | [12] > 100 µM | [13] > 100 µM | [14] > 100 µM | [15] > 100 µM

O=c1[nH]c2ccc(CC(=S)N3CCOCC3)cc2s1
inactive: [1] > 100 µM | [18] 53.6 µM | [2] > 100 µM | [3] > 100 µM | [4] > 100 µM | [5] > 100 µM | [6] > 100 µM | [7] > 100 µM | [8] > 100 µM | [9] > 100 µM | [10] > 100 µM | [17] > 100 µM | [19] > 100 µM | [11] > 100 µM | [12] > 100 µM | [13] > 100 µM | [14] > 100 µM | [15] > 100 µM
